Experimental data taken from the supplement of paper PMC10307832.

Key:
Experiment in all cases: relative viability (nuclei count vs DMSO), 5 days (fraction); higher = more cells survive
Kobe2602 + Decitabine = compound: C1=CC(=CC=C1NC(=S)NNC2=C(C=C(C=C2[N+](=O)[O-])C(F)(F)F)[N+](=O)[O-])F [Kobe2602] + Nc1ncn([C@H]2C[C@H](O)[C@@H](CO)O2)c(=O)n1 [Decitabine] (partner 2 µM)
Outline: (§1)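 Relative viability is defined as nuclei in treated wells over nuclei in vehicle wells. Duplicate plates were run and medians reported. Lung cancer cell lines in 1536-well plates were dosed by pin tool one day after seeding, with one drug or with a fixed anchor-drug dose plus five library-drug doses (not always all listed) in √10 steps, and nuclei were counted after 5 days.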

Cabozantinib + AZD7762 = compound: COc1cc2nccc(Oc3ccc(NC(=O)C4(C(=O)Nc5ccc(F)cc5)CC4)cc3)c2cc1OC [Cabozantinib] + NC(=O)Nc1cc(-c2cccc(F)c2)sc1C(=O)N[C@H]1CCCNC1 [AZD7762] (partner 0.2 µM)
Outline: as §1

Kobe2602 + OSI-027 = compound: C1=CC(=CC=C1NC(=S)NNC2=C(C=C(C=C2[N+](=O)[O-])C(F)(F)F)[N+](=O)[O-])F [Kobe2602] + COc1cccc2cc(-c3nc([C@H]4CC[C@H](C(=O)O)CC4)n4ncnc(N)c34)[nH]c12 [OSI-027] (partner 0.5 µM)
Outline: as §1

[1] = compound: COc1cc2nccc(Oc3ccc(NC(=O)C4(C(=O)Nc5ccc(F)cc5)CC4)cc3)c2cc1OC [Cabozantinib] + CC1(C)CCC(c2ccc(Cl)cc2)=C(CN2CCN(c3ccc(C(=O)NS(=O)(=O)c4ccc(N[C@H](CCN5CCOCC5)CSc5ccccc5)c(S(=O)(=O)C(F)(F)F)c4)cc3)CC2)C1 [Navitoclax] (partner 0.5 µM)
Outline: as §1

Row | Cell Line | relative viability (Kobe2602 + Decitabine; first compound 0.2 µM) | relative viability (Kobe2602 + Decitabine; first compound 0.6325 µM) | relative viability (Kobe2602 + Decitabine; first compound 2 µM) | relative viability (Kobe2602 + Decitabine; first compound 6.325 µM) | relative viability (Kobe2602 + Decitabine; first compound 20 µM) | relative viability (Cabozantinib + AZD7762; first compound 0.02 µM) | relative viability (Cabozantinib + AZD7762; first compound 0.06325 µM) | relative viability (Cabozantinib + AZD7762; first compound 0.2 µM) | relative viability (Cabozantinib + AZD7762; first compound 0.6325 µM) | relative viability (Cabozantinib + AZD7762; first compound 2 µM) | relative viability (Kobe2602 + OSI-027; first compound 0.2 µM) | relative viability (Kobe2602 + OSI-027; first compound 0.6325 µM) | relative viability (Kobe2602 + OSI-027; first compound 2 µM) | relative viability (Kobe2602 + OSI-027; first compound 6.325 µM) | relative viability (Kobe2602 + OSI-027; first compound 20 µM) | relative viability ([1]; first compound 0.02 µM) | relative viability ([1]; first compound 0.06325 µM) | relative viability ([1]; first compound 0.6325 µM) | relative viability ([1]; first compound 2 µM) | relative viability ([1]; first compound 0.2 µM)
1 | NCI-H322M | 0.707 | 0.72 | 0.693 | 0.741 | 0.718 | 0.574 | 0.716 | 0.543 | 0.725 | 0.612 | 0.573 | 0.623 | 0.544 | 0.559 | 0.557 | 1.24 | 1.4 | 1.2 | 1.19 | –
2 | NCI-H647 | 0.438 | 0.399 | 0.332 | 0.4 | 0.399 | 0.44 | 0.77 | 0.427 | 0.594 | 0.4 | 0.647 | 0.751 | 0.57 | 0.841 | 0.639 | 0.994 | 1.15 | 1.11 | 0.886 | 1.06
3 | NCI-H1792 | 0.489 | 0.512 | 0.461 | 0.472 | 0.526 | – | 1.05 | 0.684 | 0.506 | 0.335 | 0.728 | 0.732 | 0.821 | 0.5 | 0.625 | 0.59 | 0.967 | 0.637 | 0.589 | 0.555
4 | LK-2 | 0.379 | 0.293 | 0.283 | 0.313 | 0.442 | – | 0.659 | 0.426 | 0.434 | 0.408 | 0.231 | 0.208 | 0.239 | 0.248 | 0.212 | 0.642 | 1 | 0.886 | 0.794 | 0.842
5 | NCI-H1755 | 0.711 | 0.692 | 0.738 | 0.698 | 0.764 | 0.449 | 0.494 | 0.471 | 0.39 | 0.547 | 0.748 | 0.726 | 0.685 | 0.705 | 0.747 | 1 | 1.07 | 0.87 | 0.807 | 0.972
6 | EPLC-272H | 0.341 | 0.381 | 0.411 | 0.319 | 0.395 | 0.237 | 0.339 | 0.195 | 0.207 | 0.209 | 0.3 | 0.286 | 0.289 | 0.311 | 0.32 | 1.11 | 1.11 | 1.02 | 1.12 | 0.927
